Experimental findings from PubChem BioAssay (NCI) are described below.

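96-well plates; 48 h exposure; 5 concentrations. Endpoints by linear interpolation between flanking doses. Not reached: highest tested concentration assigned. GI50 is the concentration that inhibits growth by half. At the TGI there is no net growth.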

The subject of the test is MDA-MB-468 breast. In words: DTP human tumour cell line panel, 48 h.
As a reminder, the GI50 is the concentration at which growth is held to half of that of the control. The TGI is the concentration giving total growth inhibition. A lower TGI goes with more potent growth arrest. With `COc1ccc2c(c1)NC1=C(C(=O)OC1)C2c1cc(OC)c2c(c1)OCO2` (configuration not stated), the GI50 was less than 15.4 nM and the TGI worked out at 61 nM.
Take `C=C(C)[C@@H]1CC[C@]2(C(=O)N[C@H](CO)Cc3ccccc3)CC[C@]3(C)[C@H](CC[C@@H]4[C@@]5(C)CCCNC(C)(C)[C@@H]5CC[C@]43C)[C@@H]12`: the GI50 was 1520 nM and the TGI was found to be 3030 nM.
Turning to `COc1ccc(C/C(C)=C(/c2ccc(OCCN3CCCCC3)cc2)c2ccc(OC(=O)NCc3ccccc3)cc2)cc1`, the GI50 was 400 nM and the TGI stood at 789 nM.
Consider `COc1ccc(CCN2CC=Cn3c2nc2ccccc2c3=O)cc1`, for which the GI50 is 81.6 nM and the TGI turned out to be 11800 nM.
Taken in the same sequence, the figures for `O=C(N/N=C/C=C/c1ccc([N+](=O)[O-])o1)c1cc2ccccc2cc1O` were 1360 nM and 3220 nM.
Taken in the same sequence, the figures for `Nc1ncnc2c1N=C(c1ccc3c(c1)OCO3)CC(c1ccc([N+](=O)[O-])cc1)N2` (configuration not stated) were 25200 nM and 60400 nM.
On to `COc1cc(C(=O)c2c(-c3ccccc3)oc3c(OC)cccc23)cc(OC)c1OC`, for which the GI50 was 83.9 nM and the total growth inhibition concentration (TGI) was 11100 nM.
Taken in the same sequence, the figures for `Cc1cc(NC(=O)NC(=O)c2ccccc2NC(=O)C(C)N)ccc1Oc1ncc(Br)cn1` (configuration not stated) were less than 10 nM and 28500 nM.
The matching figures for `C#CC#CC#CC#CC#CC#CC#CC#CCC1OCC(COC(=O)O[C@@H](C(=O)O[C@H]2C[C@@]3(O)[C@@H](OC(=O)c4ccccc4)[C@@H]4[C@]5(OC(C)=O)CO[C@@H]5C[C@H](O)[C@@]4(C)C(=O)[C@H](OC(C)=O)C(=C2C)C3(C)C)[C@@H](NC(=O)c2ccccc2)c2ccccc2)O1` (some centres not stated): 67 nM and 423 nM.
The matching figures for `CN1CCN(C(=O)C(C)(C)c2ccc(C(=O)Nc3cn4cc(-c5ccncc5)ccc4n3)cc2)CC1`: 162 nM and 1180 nM.
Turning to `O=C(Nc1ccc(Br)cc1F)c1cc(I)ccc1O`, the GI50 is 2170 nM and the TGI came out at 6220 nM.
Taken in the same sequence, the figures for `Cc1c(Cl)cccc1C(=O)Nc1nc2c(s1)CN(C(=O)c1ccc(C(F)(F)F)cc1)CC2` were 36.5 nM and more than 35700 nM.
Consider `CC1=C(c2cccc(O)c2)[C@H](c2ccc(OCCN3CC(CF)C3)cc2)Oc2ccc(O)cc21`, for which the GI50 was 2400 nM and the TGI was found to be 6240 nM.
The matching figures for `COc1ccc2c(c1)c(CC(=O)[Se]C)c(C)n2C(=O)c1ccc(Cl)cc1`: more than 419 nM and more than 681 nM.
The matching figures for `Cc1cc(NCCCN(C)C)c2ccc3c(ccc4c(NCCCN(C)C)cc(C)nc43)c2n1`: 153 nM and 312 nM.
Regarding `O=C(Nc1ccc(Cl)cc1)Nc1nc2ccc([N+](=O)[O-])cc2s1`, the GI50 is 862 nM and the TGI was found to be 2380 nM.
With `O=C1OCC2=C1C(c1cccc(Cl)c1)c1cc3c(cc1N2CCO)OCCO3` (configuration not stated), the GI50 is 26.5 nM and the TGI turned out to be 516 nM.
Taken in the same sequence, the figures for `Cc1cc(F)ccc1S(=O)(=O)Nc1cc(-c2c(O)ccc3ccccc23)c(O)c2ccccc12` were 1650 nM and 3700 nM.
Taken in the same sequence, the figures for `Cc1ccccc1OCC(O)CN1CCN(c2ccc(Cl)cc2)CC1` (configuration not stated) were 17400 nM and 35400 nM.
Consider `CN(C)CCN1C(=O)c2c(c3c4ccccc4n4c3c3c2c2ccccc2n3C2CC(O)C(O)C4(C)O2)C1=O` (configuration not stated), for which the GI50 was 1520 nM and the TGI worked out at 5650 nM.
For `O=C(Nc1cccc(-n2cc(-c3ccncc3)c(-c3ccc(Cl)c(O)c3)n2)c1)Nc1cc(C(F)(F)F)cc(C(F)(F)F)c1`, the GI50 is 264 nM and the TGI is 2650 nM.
The matching figures for `Cc1cc([N+](=O)[O-])c(NS(=O)(=O)c2cccc(C(=O)O)c2)cc1-c1cccnc1`: more than 100000 nM and more than 100000 nM.
For `Cn1ncnc1[C@H]1c2n[nH]c(=O)c3cc(F)cc(c23)N[C@@H]1c1ccc(F)cc1`, the GI50 is 1420 nM and the TGI was more than 100000 nM.
Take `Cc1[nH]c2ccccc2c1CCCO`: the GI50 was more than 100000 nM and the TGI is more than 100000 nM.
Turning to `Cc1ccc(S(=O)(=O)c2c(COC(=O)c3cccc(C)c3)c(-c3ccccc3)nn2C)cc1`, the GI50 was more than 100000 nM and the TGI was more than 100000 nM.
As to `COc1cccc(-c2c[nH]c3c(N/N=C/c4ccncc4)ncnc23)c1`, the GI50 is 848 nM and the TGI is 3890 nM.
The matching figures for `CC1=C(C(=O)Nc2ccc3n[nH]c(C)c3c2)C(c2ccc(C(F)(F)F)cc2)CC(=O)N1` (configuration not stated): 7090 nM and more than 25000 nM.
Taken in the same sequence, the figures for `O=C1c2c(c3c4cc(Br)ccc4[nH]c3c3ccc4ccccc4c23)C(=O)N1CCN1CCNCC1` were 1800 nM and 4480 nM.
With `[Cl][Sn]([c]1ccccc1)([c]1ccccc1)[c]1ccccc1`, the GI50 is 137 nM and the TGI came out at 326 nM.
Turning to `CCNCCCn1c2c(c3ccc(Cl)cc3c1=O)C(=O)c1cc(OC)cnc1-2`, the GI50 was 249 nM and the TGI is 4300 nM.
Take `O=C1C(Nc2ccc(Cl)cc2)=C(I)C(=O)c2ncccc21`: the GI50 is 1510 nM and the concentration for total growth inhibition (TGI) came out at 3820 nM.
